Experimental data from patent US12503436B2, “Compounds and compositions for treating conditions associated with STING activity” (NOVARTIS PHARMA AG, priority 2021, dated 2025).

Target: STING (Homo sapiens, UniProt Q86WV6, G230A/H232R/R293Q/R71H)
Assay: STING reporter assay in THP1-Dual KO-IFNAR2 cells (2′3′cGAMP stimulation, luciferase reporter)
Type: cell-based
Details: 15 μM 2′3′cGAMP stimulation, 24 h, read-out: Pharmaron, THP1_IFNAR2 STING 24 h Luci Normalized: GeoMean EC50
Summary of the method: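 THP1-Dual KO-IFNAR2 cells (2×10E6 cells/mL) with compounds at 0.0017-100 μM final, stimulated with 15 μM final 2′3′cGAMP delivered by Lipofectamine 2000; 24 h at 37 °C. Luciferase in supernatant read with QUANTI-Luc Plus; EC50 derived from luminescence.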

Chain of STING (Q86WV6 whole entry R71H/G230A/H232R/R293Q): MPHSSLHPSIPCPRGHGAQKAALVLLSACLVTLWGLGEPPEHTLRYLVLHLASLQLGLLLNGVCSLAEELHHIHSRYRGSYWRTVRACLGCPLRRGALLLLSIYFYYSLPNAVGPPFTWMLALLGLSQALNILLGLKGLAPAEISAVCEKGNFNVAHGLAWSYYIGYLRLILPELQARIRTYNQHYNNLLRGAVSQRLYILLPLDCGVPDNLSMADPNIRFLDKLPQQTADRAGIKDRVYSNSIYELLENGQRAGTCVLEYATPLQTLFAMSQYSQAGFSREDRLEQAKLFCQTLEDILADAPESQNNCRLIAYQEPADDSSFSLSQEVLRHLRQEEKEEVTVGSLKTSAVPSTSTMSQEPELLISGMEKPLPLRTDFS

SMILES | EC50
O=C(Nc1c[nH]c2ccc(O[C@H]3C[C@@H](c4ccc(C(F)(F)F)nc4)C3)cc12)[C@H]1C[C@@H](CO)C1 [Compound 550, cis-3-(hydroxymethyl)-N-(5-(cis-3-(6-(trifluoromethyl)pyridin-3-yl)cyclobutoxy)-1H-indol-3-yl)cyclobutane-1-carboxamide] | 200 to 1000 nM
CC1(C)CC1C(=O)Nc1c[nH]c2ccc(O[C@H]3C[C@@H](c4ccc(C(F)(F)F)cc4)C3)cc12 (stereo partly drawn) [Compound 359, 2,2-dimethyl-N-(5-(cis-3-(4-(trifluoromethyl)phenyl)cyclobutoxy)-1H-indol-3-yl)cyclopropane-1-carboxamide] | 40 to 200 nM
N#C[C@H]1C[C@@H]1C(=O)Nc1c[nH]c2ccc(O[C@H]3C[C@H](c4ccc(C(F)(F)F)cc4)C3)cc12 [Compound 562, (1s,2s)-2-cyano-N-(5-((trans)-3-(4-(trifluoromethyl)phenyl)cyclobutoxy)-1H-indol-3-yl)cyclopropane-1-carboxamide] | 200 to 1000 nM
CC(=O)Nc1c[nH]c2ccc(OCCC3CCN(c4ccc(C(F)(F)F)cc4)CC3)cc12 [Compound 104, N-(5-(2-(1-(4-(trifluoromethyl)phenyl)piperidin-4-yl)ethoxy)-1H-indol-3-yl)acetamide] | 200 to 1000 nM
CC(=O)Nc1c[nH]c2ccc(CCCc3ccc(C(F)(F)F)cc3)cc12 [Compound 132, N-(5-(3-(4-(trifluoromethyl)phenyl)propyl)-1H-indol-3-yl)acetamide] | 40 to 200 nM
CC1(F)CC(C(=O)Nc2c[nH]c3ccc(O[C@H]4C[C@@H](c5ccc(C(F)(F)F)cc5)C4)cc23)C1 (stereo partly drawn) [Compound 356, 3-fluoro-3-methyl-N-(5-(cis-3-(4-(trifluoromethyl)phenyl)cyclobutoxy)-1H-indol-3-yl)cyclobutane-1-carboxamide] | 200 to 1000 nM
CC(C)(C)CC(=O)Nc1c[nH]c2ccc(O[C@H]3C[C@@H](c4ccc(C(F)(F)F)cc4)C3)cc12 [Compound 157, 3,3-dimethyl-N-(5-(cis-3-(4-(trifluoromethyl)phenyl)cyclobutoxy)-1H-indol-3-yl)butanamide] | 40 to 200 nM
COCCN1CC(C)(C(=O)Nc2c[nH]c3ccc(O[C@H]4C[C@@H](c5ccc(C(F)(F)F)cc5)C4)cc23)C1 [Compound 422, 1-(2-methoxyethyl)-3-methyl-N-(5-(cis-3-(4-(trifluoromethyl)phenyl)cyclobutoxy)-1H-indol-3-yl)azetidine-3-carboxamide] | 1000 to 5000 nM
CC1(C(=O)Nc2c[nH]c3ccc(O[C@H]4C[C@@H](c5ccc(C(F)(F)F)cc5)C4)cc23)CCCO1 (stereo partly drawn) [Compound 358, 2-methyl-N-(5-(cis-3-(4-(trifluoromethyl)phenyl)cyclobutoxy)-1H-indol-3-yl)tetrahydrofuran-2-carboxamide] | 1000 to 5000 nM
CO[C@H]1C[C@H](C(=O)Nc2c[nH]c3ccc(OCCc4ccc(C(F)(F)F)nc4)cc23)C1 [Compound 194, trans-3-methoxy-N-(5-(2-(6-(trifluoromethyl)pyridin-3-yl)ethoxy)-1H-indol-3-yl)cyclobutane-1-carboxamide] | 200 to 1000 nM
CC(=O)Nc1c[nH]c2ccc(OCCn3ccc(C(F)(F)F)n3)cc12 [Compound 196, N-(5-(2-(3-(trifluoromethyl)-1H-pyrazol-1-yl)ethoxy)-1H-indol-3-yl)acetamide] | 5000 to 100000 nM
CC1(C(=O)Nc2c[nH]c3ccc(CCOc4ccc(C(F)(F)F)cc4)cc23)CCOC1 (stereo not shown) [Compound 178, 3-methyl-N-(5-(2-(4-(trifluoromethyl)phenoxy)ethyl)-1H-indol-3-yl)tetrahydrofuran-3-carboxamide] | 200 to 1000 nM
CC(=O)Nc1c[nH]c2ccc(COCc3cccc(C(F)(F)F)c3)cc12 [Compound 106, N-(5-(((3-(trifluoromethyl)benzyl)oxy)methyl)-1H-indol-3-yl)acetamide] | 200 to 1000 nM
CC(=O)Nc1c[nH]c2cc(F)c(CCOc3ccc(C(F)(F)F)cc3)cc12 [Compound 223, N-(6-fluoro-5-(2-(4-(trifluoromethyl)phenoxy)ethyl)-1H-indol-3-yl)acetamide] | 40 to 200 nM
CC1(C(=O)Nc2c[nH]c3ccc(CC(O)Cc4ccc(C(F)(F)F)cc4)cc23)CC1 (stereo not shown) [Compound 174, N-(5-(2-hydroxy-3-(4-(trifluoromethyl)phenyl)propyl)-1H-indol-3-yl)-1-methylcyclopropane-1-carboxamide] | 200 to 1000 nM
CCC(=O)Nc1c[nH]c2ccc(CCOc3ccc(C)cc3)cc12 [Compound 168, N-(5-(2-(p-tolyloxy)ethyl)-1H-indol-3-yl)propionamide] | 200 to 1000 nM
CC(=O)Nc1c[nH]c2ccc(OCC(F)(F)CN3CCC(F)(F)CC3)cc12 [Compound 112, N-(5-(3-(4,4-difluoropiperidin-1-yl)-2,2-difluoropropoxy)-1H-indol-3-yl)acetamide] | 5000 to 100000 nM

The next lines start with the values.

EC50 | SMILES
40 to 200 nM | CO[C@H]1C[C@H](C(=O)Nc2c[nH]c3ccc(OCc4ccc(C(F)(F)F)cc4)cc23)C1 [Compound 300, trans-3-methoxy-N-(5-((4-(trifluoromethyl)benzyl)oxy)-1H-indol-3-yl)cyclobutane-1-carboxamide]
40 to 200 nM | CC1(C(=O)Nc2c[nH]c3ccc(OCCc4ccc(C(F)(F)F)cc4)cc23)COC1 [Compound 238, 3-methyl-N-(5-(4-(trifluoromethyl)phenethoxy)-1H-indol-3-yl)oxetane-3-carboxamide]
5000 to 100000 nM | CC(=O)Nc1c[nH]c2c(C)cc(OCCC3CCN(CC(F)(F)F)CC3)cc12 [Compound 281, N-(7-methyl-5-(2-(1-(2,2,2-trifluoroethyl)piperidin-4-yl)ethoxy)-1H-indol-3-yl)acetamide]
40 to 200 nM | CC(=O)Nc1c[nH]c2ccc(CCOc3ccc(C4CCC(F)(F)CC4)cc3)cc12 [Compound 224, N-(5-(2-(4-(4,4-difluorocyclohexyl)phenoxy)ethyl)-1H-indol-3-yl)acetamide]
1000 to 5000 nM | COCC1(C(=O)Nc2c[nH]c3ccc(OCC[C@@H]4C[C@@H]5CN(CC(F)(F)F)C[C@@H]5C4)cc23)CC1 [Compound 305, 1-(methoxymethyl)-N-(5-(2-((3aR,5r,6aS)-2-(2,2,2-trifluoroethyl)octahydrocyclopenta[c]pyrrol-5-yl)ethoxy)-1H-indol-3-yl)cyclopropane-1-carboxamide]
1000 to 5000 nM | CC(=O)Nc1c[nH]c2ccc(OCCC34CC(C3)C4)cc12 [Compound 458, N-(5-(2-(bicyclo[1.1.1]pentan-1-yl)ethoxy)-1H-indol-3-yl)acetamide]
200 to 1000 nM | CC(=O)Nc1c[nH]c2ccc(OCC[C@H]3CC[C@H](C(F)(F)F)CC3)cc12 (single isomer, unassigned) [Compound 456, N-(5-(2-(trans-4-(trifluoromethyl)cyclohexyl)ethoxy)-1H-indol-3-yl)acetamide]
1000 to 5000 nM | CC(=O)Nc1c[nH]c2ccc(OC(C)Cc3ccc(C(F)(F)F)cc3)cc12 (single isomer, unassigned) [Compound 285, N-(5-((1-(4-(trifluoromethyl)phenyl)propan-2-yl)oxy)-1H-indol-3-yl)acetamide]
200 to 1000 nM | O=C(Nc1c[nH]c2ccc(CCOc3ccc(C(F)(F)F)cc3)cc12)C1(C(F)(F)F)CC1 [Compound 387, 1-(trifluoromethyl)-N-(5-(2-(4-(trifluoromethyl)phenoxy)ethyl)-1H-indol-3-yl)cyclopropane-1-carboxamide]
200 to 1000 nM | O=C(Nc1c[nH]c2ccc(OCc3ccc(C(F)(F)F)cc3)cc12)C1CC1 [Compound 317, N-(5-((4-(trifluoromethyl)benzyl)oxy)-1H-indol-3-yl)cyclopropanecarboxamide]
5000 to 100000 nM | CC(=O)Nc1c[nH]c2ccc(OCC[C@@H]3C[C@@H]4CN(C)C[C@@H]4C3)cc12 [Compound 292, N-(5-(2-((3aR,5r,6aS)-2-methyloctahydrocyclopenta[c]pyrrol-5-yl)ethoxy)-1H-indol-3-yl)acetamide]
1000 to 5000 nM | CC(=O)Nc1c[nH]c2ccc(C(O)CCc3ccc(C(F)(F)F)cc3)cc12 (stereo not shown) [Compound 282, N-(5-(1-hydroxy-3-(4-(trifluoromethyl)phenyl)propyl)-1H-indol-3-yl)acetamide]
1000 to 5000 nM | CC(=O)Nc1c[nH]c2ccc(OCC3(c4ccc(C(F)(F)F)cc4)CC3)cc12 [Compound 289, N-(5-((1-(4-(trifluoromethyl)phenyl)cyclopropyl)methoxy)-1H-indol-3-yl)acetamide]
200 to 1000 nM | CC(=O)Nc1c[nH]c2ccc(CCOc3ccnc(OC(F)F)c3)cc12 [Compound 491, N-[5-(2-{[2-(difluoromethoxy)pyridin-4-yl]oxy}ethyl)-1H-indol-3-yl]acetamide]
200 to 1000 nM | CC1(C(=O)Nc2c[nH]c3ccc(OCc4ccc(C(F)(F)F)cc4)cc23)CCCO1 (stereo not shown) [Compound 325, 2-methyl-N-(5-((4-(trifluoromethyl)benzyl)oxy)-1H-indol-3-yl)tetrahydrofuran-2-carboxamide]
1000 to 5000 nM | CC(=O)Nc1c[nH]c2ncc(OCCc3ccc(C(F)(F)F)cc3)cc12 [Compound 267, N-(5-(4-(trifluoromethyl)phenethoxy)-1H-pyrrolo[2,3-b]pyridin-3-yl)acetamide]
200 to 1000 nM | CC(=O)Nc1c[nH]c2ccc(CCOc3ccc(C(F)(F)F)c(Br)c3)cc12 [Compound 543, N-(5-(2-(3-bromo-4-(trifluoromethyl)phenoxy)ethyl)-1H-indol-3-yl)acetamide]
1000 to 5000 nM | CC(=O)Nc1c[nH]c2c(C)cc(COCc3ccc(C(F)(F)F)cc3)cc12 [Compound 272, N-(7-methyl-5-(((4-(trifluoromethyl)benzyl)oxy)methyl)-1H-indol-3-yl)acetamide]
200 to 1000 nM | CC1(C(=O)Nc2c[nH]c3ccc(CCOc4ccc(C(F)(F)F)cc4)cc23)CCCO1 (stereo not shown) [Compound 396, 2-methyl-N-(5-(2-(4-(trifluoromethyl)phenoxy)ethyl)-1H-indol-3-yl)tetrahydrofuran-2-carboxamide]
5000 to 100000 nM | CC(=O)Nc1c[nH]c2ccc(CCOc3cccc(C(C)N(C)C)c3)cc12 (stereo not shown) [Compound 536, N-(5-(2-(3-(1-(dimethylamino)ethyl)phenoxy)ethyl)-1H-indol-3-yl)acetamide]
